The target of assay [1] is FGFR4 (Homo sapiens, UniProt P22455). The experiment in a line: In vitro biochemical kinase analysis of FGFR4 (HTRF KinEASE-TK). As to conditions: HTRF kinase assay. How it is done:
In Vitro Biochemical Kinase Analysis of FGFR4
FGFR4 protein kinase detection kit was purchased from Cisbio (HTRF KinEASE-TK kit). Prepare 1× kinase reaction buffer. Transfer 10 nL of a diluted compound to each well of a reaction plate (784075, Greiner) with an Echo 550, and seal the plate with sealing film. The reaction plate was centrifuged at 1000 g for 1 minute. Prepare 2×FGFR4 using 1× kinase reaction buffer, add 5 μL of kinase to each well of the reaction plate, seal the plate, centrifuge at 1000 g for 30 seconds, and incubate it at room temperature for 10 minutes. Prepare a mixture of 2×TK-substrate-biotin and ATP using 1× kinase reaction buffer, add 5 μL of TK-substrate-biotin/ATP mixture to the reaction plate, seal the plate with sealing film, centrifuge at 1000 g for 30 seconds, and react at room temperature for 40 minutes. Prepare 2×Sa-XL 665 and TK-antibody-Cryptate mixture using HTRF detection buffer, add 10 μL Sa-XL 665 and TK-antibody-Cryptate mixture to each well, centrifuge at 1000 g for 30 seconds, and react at room temperature for 1 hour. Envision 2104 read fluorescence signals at 615 nm (Cryptate) and at 665 nm (XL665). IC50 of the compound was calculated using the GraphPad nonlinear fitting formula.
A general note: Time-resolved FRET reads energy transfer from a long-lived donor to a nearby acceptor.

Assay [2] concerns HuH-7 hepatoma cells. Nature of the assay: In vitro cell proliferation assay (CellTiter-Glo, CTG), HuH-7. In kind it is cell-based. As to conditions: Homo sapiens, Huh-7, 96 h, HuH-7 cells. How it is done:
(§1) In Vitro Cell Proliferation Assay of FGFR4 (CellTiter-Glo Luminescent Cell Viability Assay, CTG Assay)
(§2) Hep 3B hepatoma cells were purchased from Cell Resource Center of Peking Union College, and HuH-7 hepatoma cells were purchased from Shanghai Biological Technology Co., Ltd. enzyme research. The cells were prepared at a concentration of 3×10^4/mL, which was then added with 100 μL to each well of a 96-well transparent flat-bottom black-walled plate to make 3000 cells per well. Incubate overnight at 37° C. in 5% CO2 incubator. Dilute a compound and add it to the wells having the cells, then add cell culture medium to 200 μL per well. Put in CO2 incubator for incubation. After 96 hours, 100 μL of culture medium was removed from each well, 100 μL of CTG was added, and the 96-well plate was placed on a shaker for 10 minutes, and placed in the shade at room temperature for 45 minutes. Data was read out by SoftMax Pro i3X Microplate Reader of MD, analyzed by the software GraphPad Prism 5.0, and S-shaped dose-response curve was drawn, then the EC50 values were calculated.
For orientation: In ATP-based viability assays light output follows the ATP content of the culture.

Assay [3] has as its system Hep 3B tumor models. Nature of the assay: In vivo efficacy test, Hep3B subcutaneous xenograft in nude mice. Details: species or system Nu/Nu nude mice. As to conditions: for tumor inhibition rate: gavage, twice a day, Hep3B xenograft, day 16. As for the experimental part:
Human hepatoma Hep3B cells and cell culture medium (EMEM) were purchased from ATCC. Antibiotics (penicillin, streptomycin) and Tryspin-EDTA were purchased from Gibco. Phosphate buffered saline (PBS) and fetal bovine serum (FBS) were purchased from Hyclone. Matrigel was purchased from Corning. Nu/Nu nude mice 6-8 weeks, female, purchased from Vitalriver.
Human hepatoma Hep3B cells were cultured in monolayer in vitro, and cultured in EMEM with 10% fetal bovine serum, 100 U/mL penicillin and 100 μg/mL streptomycin, 37° C., 5% CO2. Trypsin-EDTA was used twice a week for routine digestion and passage. When cell saturation reached 80%-90%, cells were harvested, counted, and seeded. 0.2 mL of 10×10^6 Hep3B cells were subcutaneously seeded on the right back of each nude mouse (PBS:Matrigel=1:1). Administration was started when the average tumor volume reached 128 mm^3.
The mice were administered by gavage, twice a day. Control group was given pure water. Three treatment groups were administered Compound 4, at the doses of 10 mg/kg, 30 mg/kg, and 60 mg/kg, respectively. Tumors were measured and weighed twice a week. By day 16, the average tumor volume in the control group had reached the humanitarian endpoint (2000 mm^3), and the experiment was terminated.
The data was processed by software such as Excel. […] The tumor inhibition effect was obvious in Hep 3B tumor models.

Assay [4] deals with Hep 3B hepatoma cells. The experiment in a line: In vitro cell proliferation assay (CellTiter-Glo, CTG), Hep 3B. In kind it is cell-based, human. As to conditions: Homo sapiens, Hep3B, 96 h, Hep 3B cells. As for the experimental part: as §1, §2

The results in this text go back to patent US12344611B2, “Bridged cycloformylpyridine derivatives and uses thereof” (BroadenBio Co., Ltd., priority 2019, dated 2025).

FGFR4, sequence (P22455 22-802): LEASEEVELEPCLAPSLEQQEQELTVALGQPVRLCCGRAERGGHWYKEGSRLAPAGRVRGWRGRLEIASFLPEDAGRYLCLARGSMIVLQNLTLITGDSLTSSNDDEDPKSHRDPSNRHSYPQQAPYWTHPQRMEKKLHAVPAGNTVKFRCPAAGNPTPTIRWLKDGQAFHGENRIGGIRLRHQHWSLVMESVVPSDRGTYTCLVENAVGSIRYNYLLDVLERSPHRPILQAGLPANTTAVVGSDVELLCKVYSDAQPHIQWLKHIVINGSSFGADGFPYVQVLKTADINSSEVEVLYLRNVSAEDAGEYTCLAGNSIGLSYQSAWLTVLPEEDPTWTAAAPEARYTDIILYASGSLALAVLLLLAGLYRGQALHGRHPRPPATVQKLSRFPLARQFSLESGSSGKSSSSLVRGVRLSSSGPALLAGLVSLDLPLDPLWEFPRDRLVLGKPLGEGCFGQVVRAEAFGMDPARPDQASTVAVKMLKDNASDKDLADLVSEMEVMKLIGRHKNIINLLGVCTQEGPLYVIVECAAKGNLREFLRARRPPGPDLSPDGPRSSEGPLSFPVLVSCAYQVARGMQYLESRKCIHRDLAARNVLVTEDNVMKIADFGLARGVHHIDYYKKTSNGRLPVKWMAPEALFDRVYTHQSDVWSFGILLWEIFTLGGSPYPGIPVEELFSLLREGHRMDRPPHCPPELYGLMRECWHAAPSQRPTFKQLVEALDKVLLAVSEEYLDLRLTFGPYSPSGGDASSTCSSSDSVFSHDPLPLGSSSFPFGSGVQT

As usually defined, the IC50 is the concentration needed to halve the response being measured. A high value points to a need for much substance. As a reminder, the EC50 is the concentration giving half of the maximal effect. For the compound `COCCNc1cc(NC(=O)N2c3nc(C=O)c(CN4CCN(C)CC4=O)cc3C3(F)CC2C3)ncc1C#N` [Compound 4, N-(5-cyano-4-((2-methoxyethyl)amino)pyridin-2-yl)-4-fluoro-7-formyl-6-((4-methyl-2-oxopiperazin-1-yl)methyl)-3,4-dihydro-2,4-methylene-1,8-naphthyridine-1(2H)-carboxamide], the IC50 in assay [1] was determined as 0.7 nM. For the same compound, the EC50 was determined as 12 nM in assay [2] and 6.4 nM in assay [4]. For the same compound, the tumor inhibition rate is listed as 78% in assay [3] (30 mg/kg) and 97% in assay [3] (60 mg/kg). Moreover, in assay [3] (Hep 3B tumor models, in words), the tumor inhibition effect entry was “obvious”.
Consider `COCCNc1cc(NC(=O)N2c3nc(C=O)ccc3C3(NC(=O)c4cnn(C)c4)CC2C3)ncc1C#N` [Compound 32, N-(5-cyano-4-((2-methoxyethyl)amino)pyridin-2-yl)-4-(1-methyl-1H-pyrazole-4-carboxamido)-7-formyl-3,4-dihydro-2,4-methylene-1,8-naphthyridine-1(2H)-carboxamide], for which the IC50 in assay [1] was 0.5 nM. For the same compound, the EC50 in assay [2] turned out to be 0.7 nM; in assay [4], 1.7 nM.
For `COCCNc1cc(NC(=O)N2c3nc(C=O)ccc3C3(OCCOC)CC2C3)ncc1C#N` [Compound 36, N-(5-cyano-4-((2-methoxyethyl)amino)pyridin-2-yl)-4-(2-methoxyethoxy)-7-formyl-3,4-dihydro-2,4-methylene-1,8-naphthyridine-1(2H)-carboxamide], 2.5 nM corresponded to half-maximal inhibition in assay [1] (IC50). The EC50 in assay [2] turned out to be 11.8 nM; in assay [4] it was 8.5 nM.
Taken in the same sequence, the figures for `CCS(=O)(=O)NC12CC(C1)N(C(=O)Nc1cc(NCCOC)c(C#N)cn1)c1nc(C=O)ccc12` [Compound 38, N-(5-cyano-4-((2-methoxyethyl)amino)pyridin-2-yl)-4-ethanesulfonamido-7-formyl-3,4-dihydro-2,4-methylene-1,8-naphthyridine-1(2H)-carboxamide] were 2.3 nM, 19.2 nM and 9.5 nM.
Regarding `COCCNc1cc(NC(=O)N2c3nc(C=O)ccc3C3(OCCN4CCOCC4)CC2C3)ncc1C#N` [Compound 39], in assay [1], the half-maximal inhibitory concentration (IC50) was 1.6 nM. The EC50 in assay [2] is 10 nM; in assay [4] it was 7.8 nM.
Consider `COCCNc1cc(NC(=O)N2c3nc(C=O)ccc3C3(NC(=O)C4CCN(C)C4)CC2C3)ncc1C#N` (stereo not drawn) [Compound 40], for which the IC50 in assay [1] amounted to 3.4 nM. The EC50 in assay [2] stood at 39.6 nM; in assay [4], 24.9 nM.
In assay [1], `COCCNc1cc(NC(=O)N2c3nc(C=O)ccc3C3(NC(=O)CN4CCCC4)CC2C3)ncc1C#N` [Compound 41] returned an IC50 of 3.4 nM. Moreover, the results for the EC50 in assay [2] and in assay [4] were 13.3 nM and 11.9 nM, respectively.
